In patent US20230085578A1, “SYSTEMS AND METHODS FOR TRIPLE-PARAMETRIC OPTICAL MAPPING” (The George Washington University, priority 2021, published 2023):
Read-outs that look alike come from different tables or passages of the source.

Test system: mouse hearts
Assay: Triple parametric optical mapping (Vm, Ca2+, NADH) of Langendorff-perfused mouse hearts during drug treatment
Design: Effect on contractions of the heart (electromechanical uncoupling): dose or concentration left out as unconfirmed
Settings: for APD80 (action potential duration) / AR (anisotropic ratio, CVL to CVT) / CVL (longitudinal conduction velocity) / CVT (transverse conduction velocity) / Ca2+ RT (rise time) / Ca t (calcium decay time constant) / CaTD80 (calcium transient duration) / NADH fluorescence intensity (normalized to first recording of the heart) / Vm RT (rise time) / Vm-Ca2+ delay: Blebbistatin 15 μM, Verapamil 1 μM, mean±SEM
Protocol: Langendorff perfusion: Adult male and female mice on C57BL/6 background were used in this study. Mice were anesthetized by isoflurane inhalation and cervical dislocation was performed. Hearts were quickly excised following thoracotomy and the aorta was cannulated. The heart was attached to a Langendorff perfusion system, hung in a vertical position in a temperature-controlled bath and perfused with a modified Tyrode's solution containing (in mM) 130 NaCl, 24 NaHCO3, 1.2 NaH2PO4, 1 MgCl2, 5.6 Glucose, 4 KCl, 1.8 CaCl2, pH 7.40 and bubbled with carbogen (95% 02 and 5% CO2) at 37° C. Perfusion pressure was maintained at ˜80 mmHg by adjusting the flow rate between 1 and 1.5 ml/min. A platinum bipolar electrode was placed at the center of the anterior surface residing the middle of the field of view. Gentle pressure was applied to the back of the heart as it was pushed up to the front optical glass of the bath using a paddle, allowing the pacing electrode to be held in place. Electrical stimuli were applied to determine the threshold of pacing. Hearts were paced at 1.5× pacing threshold amplitude and 2 ms stimulus duration, only during optical recording. Hearts were paced at varying rates as listed in the figures to determine the restitution properties of the heart under each condition.
Optical Mapping: The heart was subjected to a 10 min equilibration period followed by staining with the voltage- and calcium-sensitive dyes. A 1 ml mixture of RH237 ([…] Tyrode's solution, Biotium 61018) was prepared and immediately injected into the dye port above the cannula over a 3-5 min period. This was followed by a 5 min washout period. Similarly, a 1 ml mixture of Rhod2-AM (30 ul of 1 mg/ml dye stock solution+[…] Tyrode's solution, Thermo Fisher Scientific R1244 and Biotium 59005, respectively) was prepared and immediately injected into the dye port over a 3-5 min period. This was followed by 5 min dye washout period.
The heart was then illuminated by two LED excitation light sources at 365 nm and 520±5 nm wavelengths. While the former induces autofluorescence of NADH in the tissue, the latter excites both RH237 and Rhod2-AM dyes. Control optical recordings of NADH, Vm, and Ca^2+ were simultaneously acquired at 1 kHz sampling rate. NADH, Vm, and Ca^2+ are indicative of […].
[…] […] Optical recordings were once again acquired for each of these conditions as described above.
Data Analysis: Optical data of NADH, transmembrane potential and calcium were analyzed using a custom Matlab software, Rhythm 3.0, which is available in an open-source format on Github. Rhythm 3.0 which is an upgraded version of Rhythm 1.2, incorporates NADH visualization and analysis features as well as the ability to calculate delay in transmembrane potential to intracellular calcium activation (Vm-Ca^2+ Delay). Rhythm software was written to analyze data formats generated by SciMedia systems but can be modified to analyze other data formats.
Ten different parameters were measured from the 3 optical signals that were simultaneously recorded under each condition using the Rhythm 3.0 software to determine MECC. The ten parameters include, from transmembrane potential: (1) rise time (Vm RT), (2) action potential duration (APD80), (3) transverse and (4) longitudinal conduction velocity (CVT and CVL) and (5) anisotropic ratio (AR), from intracellular calcium: (6) rise time (Ca^2+ RT), (7) calcium transient duration (CaTD80), (8) calcium decay time constant (t), (9) Vm-Ca^2+ delay and (10) NADH fluorescence intensity.

Cc1ccc2c(c1)C(=O)C1(O)CCN(c3ccccc3)C1=N2 (centres unmarked) [Blebbistatin, blebbistatin]
Change in CVT (in words): faster
Change in Ca2+ RT (in words): increased
Change in NADH intensity (in words): reduced
Number of the 10 measured parameters altered: 2
Effect on contractions of the heart (electromechanical uncoupling) (blebbistatin): abolished contractions

Nc1ccncc1 [4-AP, 4-aminopyridine]
BCL at which pacing of the hearts was prevented (no 1:1 capture) (4-AP 7 mM in presence of blebbistatin): < 125 ms
Change in CVT (in words) (150 ms BCL, 4-AP 7 mM vs blebbistatin): slowed
Change in Ca2+ RT (in words) (150 ms BCL, blebbistatin vs Control, 4-AP 7 mM vs blebbistatin): prolonged
APD80 (action potential duration) (BCL 125, 4-AP 7 mM): 69.09 ± 7.52
AR (anisotropic ratio, CVL to CVT) (BCL 125, 4-AP 7 mM): 1.80 ± 0.19
CVL (longitudinal conduction velocity) (BCL 125, 4-AP 7 mM): 0.47 ± 0.07
CVT (transverse conduction velocity) (BCL 125, 4-AP 7 mM): 0.27 ± 0.05
Ca2+ RT (rise time) (BCL 125, 4-AP 7 mM): 6.82 ± 1.39
Ca t (calcium decay time constant) (BCL 125, 4-AP 7 mM): 27.106 ± 6.26
CaTD80 (calcium transient duration) (BCL 125, 4-AP 7 mM): 79.32 ± 2.28
NADH fluorescence intensity (normalized to first recording of the heart) (BCL 125, 4-AP 7 mM): 0.98 ± 0.07
Vm RT (rise time) (BCL 125, 4-AP 7 mM): 5.15 ± 0.29
Vm-Ca2+ delay (BCL 125, 4-AP 7 mM): −1.88 ± 1.79
APD80 (action potential duration) (BCL 150, 4-AP 7 mM): 78.13 ± 3.52
AR (anisotropic ratio, CVL to CVT) (BCL 150, 4-AP 7 mM): 1.90 ± 0.45
CVL (longitudinal conduction velocity) (BCL 150, 4-AP 7 mM): 0.53 ± 0.09
CVT (transverse conduction velocity) (BCL 150, 4-AP 7 mM): 0.28 ± 0.05
Ca2+ RT (rise time) (BCL 150, 4-AP 7 mM): 7.05 ± 1.03
Ca t (calcium decay time constant) (BCL 150, 4-AP 7 mM): 30.94 ± 5.51
CaTD80 (calcium transient duration) (BCL 150, 4-AP 7 mM): 88.37 ± 6.37
NADH fluorescence intensity (normalized to first recording of the heart) (BCL 150, 4-AP 7 mM): 0.97 ± 0.06
Vm RT (rise time) (BCL 150, 4-AP 7 mM): 4.94 ± 0.63
Vm-Ca2+ delay (BCL 150, 4-AP 7 mM): −1.71 ± 2.13
APD80 (action potential duration) (BCL 200, 4-AP 7 mM): 84.56 ± 6.68
AR (anisotropic ratio, CVL to CVT) (BCL 200, 4-AP 7 mM): 1.97 ± 0.37
CVL (longitudinal conduction velocity) (BCL 200, 4-AP 7 mM): 0.66 ± 0.06
CVT (transverse conduction velocity) (BCL 200, 4-AP 7 mM): 0.32 ± 0.05
Ca2+ RT (rise time) (BCL 200, 4-AP 7 mM): 7.04 ± 1.57
Ca t (calcium decay time constant) (BCL 200, 4-AP 7 mM): 37.11 ± 11.58
CaTD80 (calcium transient duration) (BCL 200, 4-AP 7 mM): 96.41 ± 8.18
NADH fluorescence intensity (normalized to first recording of the heart) (BCL 200, 4-AP 7 mM): 0.97 ± 0.07
Vm RT (rise time) (BCL 200, 4-AP 7 mM): 4.79 ± 0.23
Vm-Ca2+ delay (BCL 200, 4-AP 7 mM): −1.48 ± 1.38
Change in APD80 (in words) (all tested pacing rates, vs blebbistatin): prolonged

COc1ccc(CCN(C)CCCC(C#N)(c2ccc(OC)c(OC)c2)C(C)C)cc1OC (centres unmarked) [Verapamil, verapamil]
APD80 (action potential duration) (BCL 80): 31.06 ± 0.00
CVL (longitudinal conduction velocity) (BCL 80): 0.28 ± 0.00
CVT (transverse conduction velocity) (BCL 80): 0.21 ± 0.00
Ca2+ RT (rise time) (BCL 80): 8.09 ± 0.00
Ca t (calcium decay time constant) (BCL 80): 13.71 ± 0.00
CaTD80 (calcium transient duration) (BCL 80): 60.74 ± 0.00
NADH fluorescence intensity (normalized to first recording of the heart) (BCL 80): 1.04 ± 0.00
Vm-Ca2+ delay (BCL 80): −2.81 ± 0.00
APD80 (action potential duration) (BCL 90): 44.72 ± 9.21
CVL (longitudinal conduction velocity) (BCL 90): 0.35 ± 0.03
CVT (transverse conduction velocity) (BCL 90): 0.18 ± 0.04
Ca2+ RT (rise time) (BCL 90): 8.16 ± 1.36
Ca t (calcium decay time constant) (BCL 90): 17.15 ± 1.92
CaTD80 (calcium transient duration) (BCL 90): 63.46 ± 2.71
NADH fluorescence intensity (normalized to first recording of the heart) (BCL 90): 0.98 ± 0.07
Vm RT (rise time) (BCL 90): 4.65 ± 0.10
Vm-Ca2+ delay (BCL 90): −6.07 ± 2.54
APD80 (action potential duration) (BCL 100): 45.75 ± 10.51
CVL (longitudinal conduction velocity) (BCL 100): 0.60 ± 0.02
CVT (transverse conduction velocity) (BCL 100): 0.23 ± 0.03
Ca2+ RT (rise time) (BCL 100): 9.54 ± 0.43
Ca t (calcium decay time constant) (BCL 100): 20.41 ± 3.36
CaTD80 (calcium transient duration) (BCL 100): 69.61 ± 3.02
NADH fluorescence intensity (normalized to first recording of the heart) (BCL 100): 0.99 ± 0.08
Vm RT (rise time) (BCL 100): 4.70 ± 0.39
Vm-Ca2+ delay (BCL 100): −5.22 ± 1.73
APD80 (action potential duration) (BCL 125, 4-AP 7 mM): 49.46 ± 6.20
CVL (longitudinal conduction velocity) (BCL 125, 4-AP 7 mM): 0.59 ± 0.03
CVT (transverse conduction velocity) (BCL 125, 4-AP 7 mM): 0.28 ± 0.03
Ca2+ RT (rise time) (BCL 125, 4-AP 7 mM): 8.28 ± 0.96
Ca t (calcium decay time constant) (BCL 125, 4-AP 7 mM): 32.14 ± 11.32
CaTD80 (calcium transient duration) (BCL 125, 4-AP 7 mM): 77.16 ± 7.51
NADH fluorescence intensity (normalized to first recording of the heart) (BCL 125, 4-AP 7 mM): 0.99 ± 0.08
Vm RT (rise time) (BCL 125, 4-AP 7 mM): 4.57 ± 0.25
Vm-Ca2+ delay (BCL 125, 4-AP 7 mM): −7.06 ± 4.13
APD80 (action potential duration) (BCL 150, 4-AP 7 mM): 54.39 ± 11.88
CVL (longitudinal conduction velocity) (BCL 150, 4-AP 7 mM): 0.67 ± 0.02
CVT (transverse conduction velocity) (BCL 150, 4-AP 7 mM): 0.29 ± 0.01
Ca2+ RT (rise time) (BCL 150, 4-AP 7 mM): 9.31 ± 0.93
Ca t (calcium decay time constant) (BCL 150, 4-AP 7 mM): 32.38 ± 4.88
CaTD80 (calcium transient duration) (BCL 150, 4-AP 7 mM): 89.183 ± 11.79
NADH fluorescence intensity (normalized to first recording of the heart) (BCL 150, 4-AP 7 mM): 0.99 ± 0.08
Vm RT (rise time) (BCL 150, 4-AP 7 mM): 4.70 ± 0.46
Vm-Ca2+ delay (BCL 150, 4-AP 7 mM): −5.24 ± 2.31
APD80 (action potential duration) (BCL 200, 4-AP 7 mM): 55.28 ± 2.94
CVL (longitudinal conduction velocity) (BCL 200, 4-AP 7 mM): 0.56 ± 0.09
CVT (transverse conduction velocity) (BCL 200, 4-AP 7 mM): 0.30 ± 0.05
Ca2+ RT (rise time) (BCL 200, 4-AP 7 mM): 9.14 ± 1.31
Ca t (calcium decay time constant) (BCL 200, 4-AP 7 mM): 39.09 ± 5.88
CaTD80 (calcium transient duration) (BCL 200, 4-AP 7 mM): 106.68 ± 19.92
NADH fluorescence intensity (normalized to first recording of the heart) (BCL 200, 4-AP 7 mM): 0.99 ± 0.07
Vm RT (rise time) (BCL 200, 4-AP 7 mM): 4.72 ± 0.28
Vm-Ca2+ delay (BCL 200, 4-AP 7 mM): −8.14 ± 4.48
